Reference: ChEMBL document CHEMBL2424647, “Molecular docking studies of the interaction between propargylic enol ethers and human DNA topoisomerase IIα” (2013)

What was measured:
Format in all cases: functional
SW1573 = test: Growth inhibition of human SW1573 after 48 hrs; conditions: SW1573, 48 h
WiDr = test: Growth inhibition of human WiDr after 48 hrs
HeLa = test: Growth inhibition of human HeLa after 48 hrs
HBL-100 = test: Growth inhibition of human HBL100 after 48 hrs; conditions: HBL-100, 48 h

Row | GI50 (SW1573) | GI50 (HeLa) | SMILES | GI50 (WiDr) | GI50 (HBL-100)
1 | 0.42 µM | 3.4 µM | CCCCC(C#CC(=O)OC)O/C=C/C(=O)OC (racemic) | 3.6 µM | 0.47 µM
2 | 5.5 µM | 2.6 µM | CCCCC[C@H](C#CC(=O)OC)O/C=C/C(=O)OC | 26 µM | 3.3 µM
3 | 1.3 µM | 17 µM | CCCCCC(C#CC(=O)OC)O/C=C/C(=O)OC (racemic) | 13 µM | 2.7 µM
4 | 8.4 µM | 2.9 µM | CCCCC[C@@H](C#CC(=O)OC)O/C=C/C(=O)OC | 24 µM | 2.3 µM
